Test results published in PubChem BioAssay (NCI).
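Where inhibition never reached the appropriate level, the endpoint shown equals the highest concentration tested. Otherwise, values were interpolated linearly from a five-concentration, 48-hour dose response in 96-well plates. Definition used: TGI = concentration required for complete inhibition of growth.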

Key:
Assay in all cases: growth of human tumour cells (NCI), 48 h
HT29 colon = system: HT29 colon
SW-620 colon = system: SW-620 colon
NCI-H226 lung = system: NCI-H226 lung
NCI-H23 lung = system: NCI-H23 lung
SN12C renal = system: SN12C renal
ACHN renal = system: ACHN renal
EKVX NSCLC = system: EKVX NSCLC
MOLT-4 leukemia = system: MOLT-4 leukemia
MDA-MB-435 = system: MDA-MB-435
HOP-92 NSCLC = system: HOP-92 NSCLC
OVCAR-3 ovarian = system: OVCAR-3 ovarian
K-562 leukemia = system: K-562 leukemia
A549 NSCLC = system: A549 NSCLC
NCI/ADR-RES ovarian = system: NCI/ADR-RES ovarian
MDA-MB-231 breast = system: MDA-MB-231 breast
SK-MEL-28 melanoma = system: SK-MEL-28 melanoma
HCT-116 colon = system: HCT-116 colon
SF-539 CNS = system: SF-539 CNS
CCRF-CEM leukemia = system: CCRF-CEM leukemia
OVCAR-5 ovarian = system: OVCAR-5 ovarian
M14 melanoma = system: M14 melanoma
TK-10 renal = system: TK-10 renal
HOP-62 NSCLC = system: HOP-62 NSCLC
786-0 renal = system: 786-0 renal
KM12 colon = system: KM12 colon
UACC-257 melanoma = system: UACC-257 melanoma
HL-60(TB) leukemia = system: HL-60(TB) leukemia
DU-145 prostate = system: DU-145 prostate
UACC-62 melanoma = system: UACC-62 melanoma
HCC-2998 colon = system: HCC-2998 colon
SK-MEL-5 melanoma = system: SK-MEL-5 melanoma
HCT-15 colon = system: HCT-15 colon
MCF7 breast = system: MCF7 breast
NCI-H460 lung = system: NCI-H460 lung
U251 CNS = system: U251 CNS
NCI-H522 lung = system: NCI-H522 lung
T-47D breast = system: T-47D breast
MDA-N = system: MDA-N
SF-268 CNS = system: SF-268 CNS
UO-31 renal = system: UO-31 renal
HS 578T breast = system: HS 578T breast
OVCAR-8 ovarian = system: OVCAR-8 ovarian
RPMI-8226 leukemia = system: RPMI-8226 leukemia
BT-549 breast = system: BT-549 breast
MALME-3M melanoma = system: MALME-3M melanoma
A498 renal = system: A498 renal
RXF 393 renal = system: RXF 393 renal
LOX IMVI melanoma = system: LOX IMVI melanoma
SF-295 CNS = system: SF-295 CNS
SNB-75 CNS = system: SNB-75 CNS
IGROV1 ovarian = system: IGROV1 ovarian
SNB-19 CNS = system: SNB-19 CNS
CAKI-1 renal = system: CAKI-1 renal
PC-3 prostate = system: PC-3 prostate
SK-OV-3 ovarian = system: SK-OV-3 ovarian
SR leukemia = system: SR leukemia
SK-MEL-2 melanoma = system: SK-MEL-2 melanoma

Measured: TGI

CC(=O)Oc1cc(Cl)c(C)c2c1[C@H]1CC[C@]3(C)[C@@H](OC(C)=O)CC[C@H]3[C@@H]1CC2
> 100 µM: HT29 colon | SW-620 colon | NCI-H226 lung | NCI-H23 lung | SN12C renal | ACHN renal | EKVX NSCLC | MOLT-4 leukemia | MDA-MB-435 | HOP-92 NSCLC | OVCAR-3 ovarian | K-562 leukemia | A549 NSCLC | NCI/ADR-RES ovarian | MDA-MB-231 breast | SK-MEL-28 melanoma | HCT-116 colon | SF-539 CNS | CCRF-CEM leukemia | OVCAR-5 ovarian | M14 melanoma | TK-10 renal | HOP-62 NSCLC | 786-0 renal | KM12 colon | UACC-257 melanoma | HL-60(TB) leukemia | DU-145 prostate | UACC-62 melanoma | HCC-2998 colon | SK-MEL-5 melanoma | HCT-15 colon | MCF7 breast | NCI-H460 lung | U251 CNS | NCI-H522 lung | T-47D breast | MDA-N | SF-268 CNS | UO-31 renal | HS 578T breast | OVCAR-8 ovarian | RPMI-8226 leukemia | BT-549 breast | MALME-3M melanoma | A498 renal | RXF 393 renal | LOX IMVI melanoma | SF-295 CNS | SNB-75 CNS | IGROV1 ovarian | SNB-19 CNS

O=C1N=C(SC2OC(CO)C(O)C(O)C2O)S/C1=C\c1ccccc1 (stereo not given)
> 100 µM: HT29 colon | SW-620 colon | NCI-H226 lung | CAKI-1 renal | NCI-H23 lung | SN12C renal | PC-3 prostate | ACHN renal | MOLT-4 leukemia | MDA-MB-435 | OVCAR-3 ovarian | K-562 leukemia | A549 NSCLC | NCI/ADR-RES ovarian | MDA-MB-231 breast | SK-MEL-28 melanoma | SK-OV-3 ovarian | SF-539 CNS | CCRF-CEM leukemia | SR leukemia | OVCAR-5 ovarian | M14 melanoma | TK-10 renal | HOP-62 NSCLC | 786-0 renal | KM12 colon | UACC-257 melanoma | HL-60(TB) leukemia | DU-145 prostate | UACC-62 melanoma | HCC-2998 colon | SK-MEL-5 melanoma | HCT-15 colon | MCF7 breast | NCI-H460 lung | NCI-H522 lung | T-47D breast | MDA-N | SF-268 CNS | UO-31 renal | HS 578T breast | OVCAR-8 ovarian | RPMI-8226 leukemia | BT-549 breast | MALME-3M melanoma | A498 renal | RXF 393 renal | LOX IMVI melanoma | SF-295 CNS | SNB-75 CNS | IGROV1 ovarian | SNB-19 CNS | SK-MEL-2 melanoma
